From PubChem BioAssay AID1259407 (Chemical Carcinogenesis Research Information System (CCRIS), 2018)
Calls of active or inactive are those of the source. No rule for the calls is given here.

System: CCRIS mutagenicity, Ames/micronucleus/aberration tests
Test: CCRIS mutagenicity studies
[1] = Test System: AMES SALMONELLA TYPHIMURIUM, Strain/Indicator: TA98, Metabolic Activation: NONE, Method: PREINCUBATION
[2] = Test System: AMES SALMONELLA TYPHIMURIUM, Strain/Indicator: TA100, Metabolic Activation: NONE, Method: PREINCUBATION
[3] = Test System: AMES SALMONELLA TYPHIMURIUM, Strain/Indicator: TA1535, Metabolic Activation: NONE, Method: PREINCUBATION
[4] = Test System: AMES SALMONELLA TYPHIMURIUM, Strain/Indicator: TA1537, Metabolic Activation: NONE, Method: PREINCUBATION
[5] = Test System: AMES SALMONELLA TYPHIMURIUM, Strain/Indicator: TA98, Metabolic Activation: NONE, Method: STANDARD PLATE
[6] = Test System: AMES SALMONELLA TYPHIMURIUM, Strain/Indicator: TA100, Metabolic Activation: NONE, Method: STANDARD PLATE
[7] = Test System: AMES SALMONELLA TYPHIMURIUM, Strain/Indicator: TA1537, Metabolic Activation: NONE, Method: STANDARD PLATE
[8] = Test System: AMES SALMONELLA TYPHIMURIUM, Strain/Indicator: TA1538, Metabolic Activation: NONE, Method: STANDARD PLATE

For Clc1cccc(Cl)c1NC1=NCCN1, the mutagenic call [1] was “inactive; negative”, the mutagenic call (Test System: AMES SALMONELLA TYPHIMURIUM, Strain/Indicator: TA98, Metabolic Activation: S-9, Method: PREINCUBATION) was “inactive; negative” and the mutagenic call [2] was “inactive; negative”. The mutagenic call (Test System: AMES SALMONELLA TYPHIMURIUM, Strain/Indicator: TA100, Metabolic Activation: S-9, Method: PREINCUBATION) was “inactive; negative”, the mutagenic call [3] was “inactive; negative” and the mutagenic call (Test System: AMES SALMONELLA TYPHIMURIUM, Strain/Indicator: TA1535, Metabolic Activation: S-9, Method: PREINCUBATION) was “inactive; negative”. For the same molecule, the mutagenic call [4] was “inactive; negative”, the mutagenic call (Test System: AMES SALMONELLA TYPHIMURIUM, Strain/Indicator: TA1537, Metabolic Activation: S-9, Method: PREINCUBATION) was “inactive; negative” and the mutagenic call (Test System: E. COLI, Strain/Indicator: WP2 UVRA, Metabolic Activation: NONE, Method: PREINCUBATION) was “inactive; negative”. For the same molecule, the mutagenic call (Test System: E. COLI, Strain/Indicator: WP2 UVRA, Metabolic Activation: S-9, Method: PREINCUBATION) was “inactive; negative” and the mutagenic call (Test System: UDS RAT HEPATOCYTES, Strain/Indicator: THY INCORP, Metabolic Activation: NONE, Method: IN VIVO-IN VITRO) was “inactive; negative”.
In the case of CN(N=O)C(C)(C)C, the mutagenic call (Test System: CHINESE HAMSTER V-79, Strain/Indicator: V-79/OUABAIN, Metabolic Activation: HAMSTER, HEPATOCYTES, Method: CELL-MEDIATED) is reported as “inactive; negative”.
For CCCCCCCCCCCCCCCCCCCCCCO, the mutagenic call [5] was “inactive; negative”, the mutagenic call (Test System: AMES SALMONELLA TYPHIMURIUM, Strain/Indicator: TA98, Metabolic Activation: RAT LIVER S-9, Method: STANDARD PLATE) was “inactive; negative” and the mutagenic call [6] was “inactive; negative”. The mutagenic call (Test System: AMES SALMONELLA TYPHIMURIUM, Strain/Indicator: TA100, Metabolic Activation: RAT LIVER S-9, Method: STANDARD PLATE) was “inactive; negative”, the mutagenic call (Test System: AMES SALMONELLA TYPHIMURIUM, Strain/Indicator: TA1535, Metabolic Activation: NONE, Method: STANDARD PLATE) was “inactive; negative” and the mutagenic call (Test System: AMES SALMONELLA TYPHIMURIUM, Strain/Indicator: TA1535, Metabolic Activation: RAT LIVER S-9, Method: STANDARD PLATE) was “inactive; negative”. For the same molecule, the mutagenic call [7] was “inactive; negative”, the mutagenic call (Test System: AMES SALMONELLA TYPHIMURIUM, Strain/Indicator: TA1537, Metabolic Activation: RAT LIVER S-9, Method: STANDARD PLATE) was “inactive; negative” and the mutagenic call [8] was “inactive; negative”. The mutagenic call (Test System: AMES SALMONELLA TYPHIMURIUM, Strain/Indicator: TA1538, Metabolic Activation: RAT LIVER S-9, Method: STANDARD PLATE) was “inactive; negative”, the mutagenic call (Test System: CHINESE HAMSTER V-79, Strain/Indicator: V-79 (HGPRT)/THIOGUANINE, Metabolic Activation: NONE, Method: STANDARD PLATE) was “inactive; negative” and the mutagenic call (Test System: CHINESE HAMSTER V-79, Strain/Indicator: V-79 (HGPRT)/THIOGUANINE, Metabolic Activation: RAT LIVER S-9, Method: STANDARD PLATE) was “inactive; negative”.
For Nc1cc([N+](=O)[O-])c(C(=O)O)c([N+](=O)[O-])c1, the mutagenic call (End Point: In vitro chromosomal aberrations, Test System: V79 Chinese hamster fibroblasts, Metabolic Activation: None) was “inactive; negative”, the mutagenic call (End Point: In vitro micronucleus, Test System: HepG2 human hepatoma cells, Metabolic Activation: None) was “active; positive” and the mutagenic call (Test System: Ames Salmonella typhimurium, Strain/Indicator: TA98, Metabolic Activation: None, Method: Standard plate) was “active; positive”. For the same molecule, the mutagenic call (Test System: Ames Salmonella typhimurium, Strain/Indicator: TA98, Metabolic Activation: Rat, Liver, S-9, Method: Standard plate) was “active; positive”, the mutagenic call (Test System: Ames Salmonella typhimurium, Strain/Indicator: TA98NR, Metabolic Activation: None, Method: Standard plate) was “active; positive, ta98nr is the nitroreductase-deficient derivative of ta98” and the mutagenic call (Test System: Ames Salmonella typhimurium, Strain/Indicator: TA100, Metabolic Activation: None, Method: Standard plate) was “active; positive”. For the same molecule, the mutagenic call (Test System: Ames Salmonella typhimurium, Strain/Indicator: TA100, Metabolic Activation: Rat, Liver, S-9, Method: Standard plate) was “active; positive”.
In the case of Nc1cc2[nH]c3ccccc3c2cc1[N+](=O)[O-], the mutagenic call [5] is reported as “inactive; negative”, the mutagenic call (Test System: AMES SALMONELLA TYPHIMURIUM, Strain/Indicator: TA98, Metabolic Activation: RAT, LIVER, S-9, PHENOBARBITAL, Method: STANDARD PLATE) is reported as “active; positive” and the mutagenic call [6] is reported as “inactive; negative”. For the same molecule, the mutagenic call (Test System: AMES SALMONELLA TYPHIMURIUM, Strain/Indicator: TA100, Metabolic Activation: RAT, LIVER, S-9, PHENOBARBITAL, Method: STANDARD PLATE) was “active; positive”, the mutagenic call [7] was “inactive; negative” and the mutagenic call (Test System: AMES SALMONELLA TYPHIMURIUM, Strain/Indicator: TA1537, Metabolic Activation: RAT, LIVER, S-9, PHENOBARBITAL, Method: STANDARD PLATE) was “active; positive”. The mutagenic call [8] was “inactive; negative”, the mutagenic call (Test System: AMES SALMONELLA TYPHIMURIUM, Strain/Indicator: TA1538, Metabolic Activation: RAT, LIVER, S-9, PHENOBARBITAL, Method: STANDARD PLATE) was “active; positive” and the mutagenic call (Test System: AMES SALMONELLA TYPHIMURIUM, Strain/Indicator: TA1977, Metabolic Activation: NONE, Method: STANDARD PLATE) was “inactive; negative”. For the same molecule, the mutagenic call (Test System: AMES SALMONELLA TYPHIMURIUM, Strain/Indicator: TA1977, Metabolic Activation: RAT, LIVER, S-9, PHENOBARBITAL, Method: STANDARD PLATE) was “inactive; negative”.
For O=[N+]([O-])c1ccc2c(c1)nc(/C=N/OCc1ccccc1[N+](=O)[O-])n2Cc1ccc(Cl)cc1Cl, the mutagenic call [5] was “active; positive”, the mutagenic call (Test System: AMES SALMONELLA TYPHIMURIUM, Strain/Indicator: TA98, Metabolic Activation: RAT, LIVER, S-9, PHENOBARBITAL AND BETA-NAPHTHOFLAVONE, Method: STANDARD PLATE) was “active; positive” and the mutagenic call [6] was “active; positive”. The mutagenic call (Test System: AMES SALMONELLA TYPHIMURIUM, Strain/Indicator: TA100, Metabolic Activation: RAT, LIVER, S-9, PHENOBARBITAL AND BETA-NAPHTHOFLAVONE, Method: STANDARD PLATE) was “active; positive”.
With C=CCc1ccc(OC)c(OC)c1 the mutagenic call (Test System: AMES SALMONELLA TYPHIMURIUM, Strain/Indicator: TA98, Metabolic Activation: HAMSTER, LIVER, S-9, AROCLOR 1254, Method: PREINCUBATION) was “inactive; negative”, the mutagenic call [1] was “inactive; negative” and the mutagenic call (Test System: AMES SALMONELLA TYPHIMURIUM, Strain/Indicator: TA98, Metabolic Activation: RAT, LIVER, S-9, AROCLOR 1254, Method: PREINCUBATION) was “inactive; negative”. For the same molecule, the mutagenic call (Test System: AMES SALMONELLA TYPHIMURIUM, Strain/Indicator: TA100, Metabolic Activation: HAMSTER, LIVER, S-9, AROCLOR 1254, Method: PREINCUBATION) was “inactive; negative”, the mutagenic call [2] was “inactive; negative” and the mutagenic call (Test System: AMES SALMONELLA TYPHIMURIUM, Strain/Indicator: TA100, Metabolic Activation: RAT, LIVER, S-9, AROCLOR 1254, Method: PREINCUBATION) was “inactive; negative”. The mutagenic call (Test System: AMES SALMONELLA TYPHIMURIUM, Strain/Indicator: TA1535, Metabolic Activation: HAMSTER, LIVER, S-9, AROCLOR 1254, Method: PREINCUBATION) was “inactive; negative”, the mutagenic call [3] was “inactive; negative” and the mutagenic call (Test System: AMES SALMONELLA TYPHIMURIUM, Strain/Indicator: TA1535, Metabolic Activation: RAT, LIVER, S-9, AROCLOR 1254, Method: PREINCUBATION) was “inactive; negative”. The mutagenic call (Test System: AMES SALMONELLA TYPHIMURIUM, Strain/Indicator: TA1537, Metabolic Activation: HAMSTER, LIVER, S-9, AROCLOR 1254, Method: PREINCUBATION) was “inactive; negative”, the mutagenic call [4] was “inactive; negative” and the mutagenic call (Test System: AMES SALMONELLA TYPHIMURIUM, Strain/Indicator: TA1537, Metabolic Activation: RAT, LIVER, S-9, AROCLOR 1254, Method: PREINCUBATION) was “inactive; negative”.
For O=NN(c1ccc([N+](=O)[O-])cc1)C1OC[C@@H](O)[C@@H](O)[C@H]1O (some centres undefined), the mutagenic call [6] was “active; positive”.
Cc1cnc2cc(C)c3c(nc(N)n3C)c2n1 was tested, and the mutagenic call (Test System: AMES SALMONELLA TYPHIMURIUM, Strain/Indicator: TA98, Metabolic Activation: RAT, LIVER, S-9, AROCLOR 1254, Method: STANDARD PLATE) was “active; positive”.
